Assay results from patent US20190046552A1, “COMPOSITIONS AND METHODS FOR THE TREATMENT OF HCV INFECTION” (priority 2015, published 2019).
Like-named read-outs stand apart in the source and are kept apart here.

Test: Part B (MAD): plasma PK of Formula (IIa) and its metabolites after once-daily oral Formula (IIa) for 7 days, fasted
Type: in vivo, human
Conditions: for Cmax / half-life / AUC(0-t) / Tmax: human, in vivo
Description: Part B was a blinded, randomized, placebo-controlled MAD study consisting of four cohorts of eight subjects randomized 6:2 to receive Formula (IIa) or placebo. […] To control for the possible effect of the IL28b genotype, the number of subjects with CC alleles was capped at three per cohort.
The starting dose was determined by the SRC based on review of all safety and any available PK/PD data from Part A. All subjects were dosed in the fasted state with Formula (IIa) daily, from Day 1 until […]. All subjects had nothing by mouth other than water for at least 10 hours prior to daily dosing and for 4 hours thereafter. In Part B, all subjects were administered the study medication orally with approximately 240 mL of water at the same time every day (+/−10 minutes).
A subset of blood samples shown in Table 3 above was used for the PK evaluation of plasma trough concentrations (Table 4). In addition, blood sample assessment of antiviral response was collected according to the following sampling schedule for Part B (Table 4).
All plasma PK calculations were performed using actual time points calculated relative to the time of last drug administration.
PK analysis was conducted for all enrolled subjects that received any dose of Formula (IIa) with sufficient plasma sample data to assess PK parameters. […] Data analysis was performed using a validated version of WinNonlin® Enterprise (Version 5.2) software, and summary tables and figures were generated using a validated version of WinNonlin® Autopilot™ (Version 1.1.1) and other reporting tools, including SigmaPlot®.

SMILES: CO[C@H]1C(OP(=O)(OC[C@H]2O[C@@H](n3cnc4c(N)ncnc43)CC2O)SCOC(=O)OC(C)C)[C@@H](CO)O[C@H]1n1ccc(=O)[nH]c1=O (some centres unmarked) [Formula (IIa)]
- Cmin (200 mg Formula (IIa) QD oral, fasted, Day 7, plasma, arithmetic mean (CV %)): 0.00 (NC) ng/ml
- Tmin (200 mg Formula (IIa) QD oral, fasted, Day 7, plasma, median (min, max)): 0.00 h
- Cmin (400 mg Formula (IIa) QD oral, fasted, Day 7, plasma, arithmetic mean (CV %)): 0.00 (NC)^ ng/ml
- Tmin (400 mg Formula (IIa) QD oral, fasted, Day 7, plasma, median (min, max)): 0.00 h
- Cmin (900 mg Formula (IIa) QD oral, fasted, Day 7, plasma, arithmetic mean (CV %)): 0.00 (NC) ^ ng/ml
- Tmin (900 mg Formula (IIa) QD oral, fasted, Day 7, plasma, median (min, max)): 0.00 h
- Cmax (200 to 900 mg Formula (IIa), Days 1 and 7, read-out: Cmax range): 0.531 to 6.66 ng/mL
- half-life (Day 1, 400 mg and 900 mg QD doses, read-out: mean plasma t1/2 range): 0.963 to 1.05 h
- AUC(0-t) (Day 1, 200-900 mg Formula (IIa) QD, read-out: mean AUC0-24 range across dose levels): 0.512 to 7.91 ng·h/mL
- Cmax (Day 1, 200-900 mg Formula (IIa) QD, read-out: mean Cmax range across dose levels): 0.531 to 3.75 ng/mL
- Tmax (Day 1, 200-900 mg Formula (IIa) QD, read-out: median Tmax, range across dose levels): 1 to 1.51 h
- half-life (Day 7, 400 mg and 900 mg QD doses, read-out: mean plasma t1/2 range): 0.684 to 1.07 h
- AUC(0-t) (Day 7, 200-900 mg Formula (IIa) QD, read-out: mean AUC0-24 range across dose levels): 0.77 to 13.7 ng·h/mL
- Cmax (Day 7, 200-900 mg Formula (IIa) QD, read-out: mean Cmax range across dose levels): 0.885 to 6.66 ng/mL
- Tmax (Day 7, 200-900 mg Formula (IIa) QD, read-out: median Tmax, range across dose levels): 1 to 1.28 h
- half-life (Days 1 and 7, across dose levels, read-out: terminal half-life (t1/2), range of means): 0.684 to 1.07 h
- AUC(0-t) (po, 200 mg, 200 mg Formula (IIa) QD oral, fasted, Day 1, plasma, arithmetic mean (CV %), read-out: AUC0-24): 0.512 ng·h/mL
- AUC(0-t) (po, 200 mg, 200 mg Formula (IIa) QD oral, fasted, Day 1, plasma, arithmetic mean (CV %), read-out: AUC0-t): 0.393 ng·h/mL
- Cmax (po, 200 mg, 200 mg Formula (IIa) QD oral, fasted, Day 1, plasma, arithmetic mean (CV %), read-out: Cmax): 0.531 ng/mL
- Tmax (po, 200 mg, 200 mg Formula (IIa) QD oral, fasted, Day 1, plasma, median (min, max), read-out: Tmax): 1 h
- AUC(0-t) (po, 200 mg, 200 mg Formula (IIa) QD oral, fasted, Day 7, plasma, arithmetic mean (CV %), footnote: AUC0-24 = AUC0-t on Day 7, read-out: AUC0-24): 0.77 ng·h/mL
- AUC(0-t) (po, 200 mg, 200 mg Formula (IIa) QD oral, fasted, Day 7, plasma, arithmetic mean (CV %), read-out: AUC0-t): 1.41 ng·h/mL
- Cmax (po, 200 mg, 200 mg Formula (IIa) QD oral, fasted, Day 7, plasma, arithmetic mean (CV %), read-out: Cmax): 0.885 ng/mL
- Tmax (po, 200 mg, 200 mg Formula (IIa) QD oral, fasted, Day 7, plasma, median (min, max), read-out: Tmax): 1 h
- AUC(0-t) (po, 400 mg, 400 mg Formula (IIa) QD oral, fasted, Day 1, plasma, arithmetic mean (CV %), read-out: AUC0-24): 7.91 ng·h/mL
- AUC(0-t) (po, 400 mg, 400 mg Formula (IIa) QD oral, fasted, Day 1, plasma, arithmetic mean (CV %), read-out: AUC0-t): 3.27 ng·h/mL
- Cmax (po, 400 mg, 400 mg Formula (IIa) QD oral, fasted, Day 1, plasma, arithmetic mean (CV %), read-out: Cmax): 2.13 ng/mL
- half-life (po, 400 mg, 400 mg Formula (IIa) QD oral, fasted, Day 1, plasma, arithmetic mean (CV %), read-out: t1/2 (converted)): 1.05 h
- Tmax (po, 400 mg, 400 mg Formula (IIa) QD oral, fasted, Day 1, plasma, median (min, max), read-out: Tmax): 1.51 h
- AUC(0-t) (po, 400 mg, 400 mg Formula (IIa) QD oral, fasted, Day 7, plasma, arithmetic mean (CV %), footnote: AUC0-24 = AUC0-t on Day 7, read-out: AUC0-24): 2.71 ng·h/mL
- AUC(0-t) (po, 400 mg, 400 mg Formula (IIa) QD oral, fasted, Day 7, plasma, arithmetic mean (CV %), read-out: AUC0-t): 3.1 ng·h/mL
- Cmax (po, 400 mg, 400 mg Formula (IIa) QD oral, fasted, Day 7, plasma, arithmetic mean (CV %), read-out: Cmax): 2.52 ng/mL
- half-life (po, 400 mg, 400 mg Formula (IIa) QD oral, fasted, Day 7, plasma, arithmetic mean (CV %), read-out: t1/2 (converted)): 0.684 h
- Tmax (po, 400 mg, 400 mg Formula (IIa) QD oral, fasted, Day 7, plasma, median (min, max), read-out: Tmax): 1.28 h
- AUC(0-t) (po, 900 mg, 900 mg Formula (IIa) QD oral, fasted, Day 1, plasma, arithmetic mean (CV %), read-out: AUC0-24): 4.58 ng·h/mL
- AUC(0-t) (po, 900 mg, 900 mg Formula (IIa) QD oral, fasted, Day 1, plasma, arithmetic mean (CV %), read-out: AUC0-t): 5.31 ng·h/mL
- Cmax (po, 900 mg, 900 mg Formula (IIa) QD oral, fasted, Day 1, plasma, arithmetic mean (CV %), read-out: Cmax): 3.75 ng/mL
- half-life (po, 900 mg, 900 mg Formula (IIa) QD oral, fasted, Day 1, plasma, arithmetic mean (CV %), read-out: t1/2 (converted)): 0.963 h
- Tmax (po, 900 mg, 900 mg Formula (IIa) QD oral, fasted, Day 1, plasma, median (min, max), read-out: Tmax): 1.04 h
- AUC(0-t) (po, 900 mg, 900 mg Formula (IIa) QD oral, fasted, Day 7, plasma, arithmetic mean (CV %), footnote: AUC0-24 = AUC0-t on Day 7, read-out: AUC0-24): 13.7 ng·h/mL
- AUC(0-t) (po, 900 mg, 900 mg Formula (IIa) QD oral, fasted, Day 7, plasma, arithmetic mean (CV %), read-out: AUC0-t): 9.39 ng·h/mL
